Reference: US5369111A, “Modulator agent and use thereof” (University of Vermont, priority 1992, dated 1994)

Key:
S180/A10 cells = assay: Modulator potency in MDR cells: reversal of acquired resistance, S180/A10; type: cell-based, murine; settings: for reversal of high level ADM resistance: 90-fold resistance, A10; for Modulator potency in MDR cells (minimal concentration restoring parental drug sensitivity), VBL: drug resistance level 10; for Modulator potency in MDR cells (minimal concentration restoring parental drug sensitivity), VCR: drug resistance level 17
Method: (§1) Mid-exponential cultures were used for all assays. The RCC-2 and RCC-5 cell lines were seeded into 24-well plates at 2×10^4 cells/well and allowed to attach to the substratum for 16-18 h prior to treatment. The S180 cell lines were seeded into culture tubes at 1×10^5 cells/ml and treated immediately. Cytotoxicity was determined by quantitation of population growth after 72 h incubation by electronic particle counter (Coulter Electronics, Hialeah, Fla.). The human tumor cell lines were used in a clonogenic assay for cytotoxicity. Cells were seeded at 300 cells/dish, incubated overnight and then treated. Colonies were scored 7-11 days later. In all assays of analog modulation of drug sensitivity, the analog was added minutes prior to the addition of cytotoxic drug.
(§2) To evaluate the ability of vindoline and the two diastereoisomeric VBL analogs to modulate the MDR phenotype (acquired resistance) of the A3 and A10 cell stains, we determined the concentration of compound required to restore drug sensitivities to parental levels. This was done by exposing the MDR cell line to a concentration range of modulator in the presence VBL, VCR and ADM at the respective IC70s of the parental cell line. The cytotoxicity curves for A3 and A10 cells, shown in FIG. 5, are distinctive among the three vinca alkaloids examined. In each cell line, there was a minimum concentration of modulator that elicited 70% growth inhibition for each drug - i.e. the reversing concentration.
(§3) *The minimal concentration of modulator required to restore the drug
(§4) sensitivity of S180/MDR cell strains to that of parental S180 cells. Data
(§5) are the averages of 2-3 separate experiments, S.D. ≤20%.

RCC-2 cells = assay: Modulation of intrinsic drug resistance, RCC-2; type: cell-based, rat; settings: IC50 drug alone / IC50 drug + modulator, at nontoxic concentration limit
Method: as §1
(§6) *calculated as the IC50 of the drug alone divided by the IC50 o
(§7) the [drug modulator] combination. Data are presented from tretments with
(§8) the nontoxic concentration limit of each analog as noted.

[1] = test system: parental cell lines (S180, RCC-2, RCC-5); assay: Modulation of intrinsic resistance in the parental cell lines (S180, RCC-2, RCC-5); type: cell-based, mouse, rat
Method: as §1, §6, §7, §8

[2] = Inhibition of population growth (cytotoxicity), rat colon adenocarcinoma RCC-5; type: cell-based; settings: rat, rcc-5 cells; RCC-5; Table III; read-out: Modulator concentration (nontoxic concentration limit of the analog)
Source text: (§9) The analogs were examined in a panel of tumor cell lines of both intrinsic and acquired drug resistance, as described in Table 1. The rat colon adenocarcinoma cell lines RCC-2 and RCC-5 (ref. 13) were maintained in Ham's F12 medium supplemented with 5% heat-inactivated, fetal bovine serum (Sterile Systems. Hyclone, Logan, Utah). The two rat colon cancer cell lines differ in their degree of cellular differentiation; whereas the RCC-2 cell line is undifferentiated, the RCC-5 cell line is highly mucinous. The human epidermoid carcinoma cell line KB-3-1 and its MDR variant KB-Vl, selected by VBL treatment (ref. 14; courtesy of M. Gottesman. National Cancer Institute), was maintained in DMEM medium supplemented with 10%, heat-inactivated, fetal bovine serum. The murine sarcoma cell line […] and its MDR strains A3 and A10 selected by ADM treatment (ref. 15; courtesy of T. Tritton, Dept. Pharmacology, Univ. Vermont). were maintained in DMEM medium supplemented with 10% heat-inactivated, horse serum (Hazelton Biolog. Lenexa, Kans.). Stock cultures were subcultured twice weekly upon reaching the late exponential phase of population growth: population doubling times were 18-24 h. Antibiotics were not used in stock or experimental cultures. The MDR cell strains were grown in drug-free media for 48 h prior to experimental use.
as §1

[3] = test system: S180/MDR cell system and rat colon cancer cell lines; assay: Cytotoxicity in the S180/MDR cell system and the rat colon cancer cell lines; type: cell-based, mouse; settings: S-180, 72 h
Source text: as §9, §1

S180/A3 cells = assay: Modulator potency in MDR cells: reversal of acquired resistance, S180/A3; type: cell-based, murine; settings: for Modulator potency in MDR cells (minimal concentration restoring parental drug sensitivity), ADM: drug resistance level 15; for Modulator potency in MDR cells (minimal concentration restoring parental drug sensitivity), VBL: drug resistance level 3; for Modulator potency in MDR cells (minimal concentration restoring parental drug sensitivity), VCR: drug resistance level 7
Method: as §1, §2, §3, §4, §5

RCC-5 cells = assay: Modulation of intrinsic drug resistance, RCC-5; type: cell-based, rat; settings: RCC-5; IC50 drug alone / IC50 drug + modulator, at nontoxic concentration limit
Method: as §1, §6, §7, §8
FIG. 9 represents the modulation of VCR sensitivity in the RCC-12 (A) and RCC-5 (B) cell lines by the analog C-20'-deoxy deethyl vincovaline. Population growth was determined after 72 hours incubation in the absence (o), or presence of 10 μM (o), 20 μM (Δ), or 50 μM of analog. Data presented are from a typical experiment.

S180 cells, parental = assay: Modulation of intrinsic drug resistance, parental S180; type: cell-based, murine; settings: S180; IC50 drug alone / IC50 drug + modulator, at nontoxic concentration limit
Method: as §1
The ability of the compounds to modulate drug sensitivity in parental cells was studied over a range of concentrations of each compound, from 10^-6 M to the non-toxic (IC10-20) or solubility limit. […] From such experiments, we determined a sensitivity index derived from the IC50 of the drug without modulator treatment divided by the drug IC50 at each concentration of modulator.
When the sensitivity index for each drug, VBL, VCR and ADM is plotted versus the modulator concentration (FIG. 4), we can compare the relative potencies of the compounds as modulators of drug toxicity to the parental S180 cells.
as §6, §7
FIG. 4 represents the potency of the vinca alkaloid compounds as modulators of drug sensitivity in S180 cells. The enhancement of sensitivity was calculated as the sensitivity index=IC50 of the drug alone divided by the IC50 of the drug+modulator. The IC50s for ADM (o) VBL (Δ), or VCR (.quadrature.) were determined over a concentration range of each modulator from data such as those depicted in FIG. 3. The values presented were averaged from duplicate samples of two separate experiments, S.D. <15% of the mean.

[4] = test system: S180 MDR cell strains A3 and A10; assay: Modulation of acquired drug resistance in the S180 MDR cell strains A3 and A10; type: cell-based, murine; settings: VBL, VCR and ADM
Method: as §1, §2
FIG. 5 represents the modulation of multidrug resistance in the MDR cell strains by the vinca alkaloids. Vindoline (A), vincovaline (B), or the analog C-20'-deoxy vincovaline (C) was added, at various concentrations, to A3 (closed symbols) or A10 (opened symbols) cell cultures containing the parental IC70 of each drug: 2.0×10^-7 M. ADM (circles: 1.5×10^-8 M VBL (triangles); and 4.5×10^-8 M; VCR (squares). Population growth was determined 72 hours later.
FIG. 6 represents the relationship between cellular drug resistance level and the minimal modulator concentration required for complete reversal of drug resistance. The drugs examined were ADM (o), VBL (Δ), and VCR (.quadrature.). The amount (concentration) of modulator, necessary to reverse each level of drug resistance contained in the A3 and A10 cell lines, was determined from data such as those of FIG. 5. The values presented were averaged from duplicate samples of two separate experiments, S.D.<15% of the mean. The arrows denote the non-toxic concentration limit for the modulator; in the case of Vincovaline this value is dependent on the MDR cell strain, 2×10^-5 M, A3; 5×10^-5 M. A10.
FIG. 11 represents the modulation of multidrug resistance in the S180 MDR cell strains A3 and A10. The cellular drug resistance level is plotted against the minimal concentration of C-20'-deoxy deethyl vincovaline required for the complete reversal of drug resistance to ADM (o), VBL (Δ), and VCR (.quadrature.). In the case of high level ADM resistance […], the sensitivity of the cells was restored to 80% of the parental value. The arrow denotes the non-toxic concentration limit of the analog.

[5] = Inhibition of population growth (cytotoxicity), rat colon adenocarcinoma RCC-2; type: cell-based; settings: rat, rcc-2 cells; RCC-2; Table III; read-out: Modulator concentration (nontoxic concentration limit of the analog)
Source text: as §9, §1

[6] = Inhibition of population growth (cytotoxicity), S180 sarcoma, parental; type: cell-based, mouse; settings: mouse, s180 cells; S180; Table III; read-out: Modulator concentration (nontoxic concentration limit of the analog)
Source text: as §9, §1

Structure (SMILES) | reversal of high level ADM resistance (S180/A10 cells; ADM) | Modulator potency in MDR cells (minimal concentration restoring parental drug sensitivity), VBL (S180/A10 cells) | Modulator potency in MDR cells (minimal concentration restoring parental drug sensitivity), VCR (S180/A10 cells) | Maximum sensitization of parental cells by modulator, drug ADM (RCC-2 cells) | Maximum sensitization of parental cells by modulator, drug VBL (RCC-2 cells) | Maximum sensitization of parental cells by modulator, drug VCR (RCC-2 cells) | modulation of intrinsic cellular resistance to ADM and/or VCR (in words) [1] | effect on the sensitivity of parental cells to VBL (in words) [1] | enhancement of VCR cytotoxicity in the parental cell lines [1] | MNTC at 72 h [2] | IC50 [3] | Modulator potency in MDR cells (minimal concentration restoring parental drug sensitivity), ADM (S180/A3 cells) | Modulator potency in MDR cells (minimal concentration restoring parental drug sensitivity), VBL (S180/A3 cells) | Modulator potency in MDR cells (minimal concentration restoring parental drug sensitivity), VCR (S180/A3 cells) | Maximum sensitization of parental cells by modulator, drug ADM (RCC-5 cells) | Maximum sensitization of parental cells by modulator, drug VBL (RCC-5 cells) | Maximum sensitization of parental cells by modulator, drug VCR (RCC-5 cells) | Maximum sensitization of parental cells by modulator, drug ADM (S180 cells, parental) | Maximum sensitization of parental cells by modulator, drug VBL (S180 cells, parental) | Maximum sensitization of parental cells by modulator, drug VCR (S180 cells, parental) | further results
CCC1CC2CN(CCc3c([nH]c4ccccc34)C(C(=O)OC)(c3cc4c(cc3OC)N(C)C3C(O)(C(=O)OC)C(OC(C)=O)C5(CC)C=CCN6CCC43C65)C2)C1 (stereo not drawn) [analog n° 353, C-14'-epi-C-20'-deoxy-VBL] | 80% | 10.0 µM | 13.0 µM | 2.1 | 1.8 | 7.3 | modulated intrinsic cellular resistance to ADM and/or VCR | less effect on the sensitivity of parental cells to VBL | 7-18 fold | 10 µM | ≥ 5 µM | 35. μM | 4.0 µM | 4.0 µM | 6.4 | 1.6 | 3.5 | 4.0 | 1.4 | 7.0 | Modulator potency in MDR cells, ADM (value marked #) (S180/A10 cells; ADM, drug resistance level 90, #: significant (>50%) reversal at the maximum nontoxic concentration): 40. μM; range of resistance levels over which parental sensitivity was restored [4]: 3-90 fold; MNTC at 72 h [5]: 10 µM; MNTC at 72 h [6]: 40 µM
CC[C@H]1C[C@@H]2CN(CCc3c([nH]c4ccccc34)[C@](C(=O)OC)(c3cc4c(cc3OC)N(C)[C@H]3[C@@](O)(C(=O)OC)[C@H](OC(C)=O)[C@]5(CC)C=CCN6CC[C@]43[C@@H]65)C2)C1 [analog n° 354, C-20'-deoxy-C-16', 20' epi VBL] | 80% | 10.0 µM | 20.0 µM | 1.9 | 1.2 | 4.0 | modulated intrinsic cellular resistance to ADM and/or VCR | less effect on the sensitivity of parental cells to VBL | 7-18 fold | 5 µM | ≥ 5 µM | 25. μM | 1.7 µM | 10.0 µM | 5.3 | 1.9 | 18.0 | 5.0 | 1.0 | 3.0 | Modulator potency in MDR cells (minimal concentration restoring parental drug sensitivity), ADM (S180/A10 cells; ADM, drug resistance level 90): 40. μM; range of resistance levels over which parental sensitivity was restored [4]: 3-90 fold; MNTC at 72 h [5]: 5 µM; MNTC at 72 h [6]: 20 µM
